{"source": "patent US7732484B2", "about": "“Use of selective adenosine A1 receptor allosteric enhancers to manipulate angiogenesis” (University of Virginia Patent Foundation, priority 2000, dated 2010)", "key": {"[1]": {"system": "chicken chorioallantoic membrane (CAM)", "test": "Windowed CAM assay, Elvax pellet, vascular density index", "type": "in vivo", "conditions": "Elvax pellet with 3 mg adenosine, in place for seven days, 12-15 eggs per group, FIG. 5", "description": "Fertile White Leghorn chicken eggs were obtained from Truslow Farms (Chesterfield, Mo.). Eggs were incubated at 37° for 7 days, then a 1.5 cm window was cut into each egg over the CAM. Pellets were applied to the CAMs and the windows closed with cellophane tape. Eggs were incubated until day 14 when the CAMs were fixed. […] The pellets were placed on the CAM where there were a few vessels present and were left in place for seven days. The CAMs then were fixed in 10% buffered formalin and vessels were counted under 20× magnification using a Nikon stereomicroscope. The quantitation of vascular number is presented as vascular density index VDI that was an adaptation of a method described by Harris-Hooker (Harris-Hooker et al., Neovascular Responses Induced by Cultured Aortic Endothelial Cells, J. Cell. Phys., 114, 302-310, 1983). A plastic cover slip inscribed with 4, 5, 6, and 8 mm diameter concentric circles was centered over the adenosine pellet on the formalin-fixed CAM. The vascular density was judged by counting the numbers of the vessels which intersected the circles. This technique allowed counting of vessels down to 10-12 u in diameter. The positioning of the pellets on the CAM was randomized. […] Adenosine was delivered by other means as well."}, "[2]": {"system": "chicken chorioallantoic membrane (CAM)", "test": "CAM assay, drug applied daily on filter paper disc, vessels counted", "type": "in vivo", "conditions": "for angiogenic response in the CAM (vessel density at edge of disk): 100 μl daily for 7 days on filter paper disk", "description": "Adenosine receptor subtype selective agonists stimulate angiogenesis to varying degrees in the CAM. […] In these studies, sterile filter paper disks were used to apply drug or vehicle to the CAM of eggs windowed after 7 days of incubation. The circular disk was 7 mm diameter. The agonist and antagonist drugs were delivered daily for 7 days in a volume of 100 μl placed onto the disks. On day 14 the CAMs were formalin fixed. The vessel density was determined by counting the vessels that intersected with the edge of the disks. Each bar represents data from between 13 and 19 eggs, with the exception of the bar for xanthine amine congener (XAC) which represents only four eggs. […] It is possible that some adenosine receptors may stimulate angiogenesis, while others, particularly the A2A receptor, may inhibit it. […] The 100 nM doses used should have allowed some preservation of subtype selectivity for the ligands.\nFertile White Leghorn chicken eggs are obtained from Truslow Labs (Maryland) and incubated until day 7 post-fertilization at 37° C. The eggs were automatically rotated by the incubator. On day 7 the eggs were candled to check for viability. The eggshell surface was cleaned with betadine and 70% isopropanol. A window 1.5×1.5 cm was cut into each egg over the CAM. The window was covered with clear cellophane tape and the eggs incubated at 37° C. overnight. The following day a sterile filter paper disc was applied to the CAM for the daily delivery of drugs or vehicle in a volume of 100 μl. CAMs were fixed on day 14 and vessels counted using the aforementioned method of Harris-Hooker et al.\nCPA at 100 nM with or without 1 μM WRC-0571 was applied to filter paper discs on developing CAMs as described above.\nHere, PD enhances the effects of endogenous adenosine on the chicken A1 receptor in the CAM. PD at a concentration of 100 μM, or vehicle, was delivered to the CAM on a filter paper disc using a protocol identical to that used for adenosine agonists. […] A small effect such as this in the absence of applied ligand or ischemia/hypoxia (which would increase the endogenous adenosine levels) is expected. Because it is a rapidly growing tissue, the CAM probably has higher levels of adenosine than more quiescent tissues, resulting in a measurable effect."}, "[3]": {"system": "chicken chorioallantoic membrane (CAM)", "test": "CAM assay, drug applied daily on filter paper disc, vessels counted", "type": "in vivo", "conditions": "20 nM CPA alone, FIG. 10"}, "[4]": {"biological_target": "T1, human A3 over the A1 receptor (Homo sapiens, UniProt P0DMS8)", "T1 sequence (P0DMS8 1-318)": "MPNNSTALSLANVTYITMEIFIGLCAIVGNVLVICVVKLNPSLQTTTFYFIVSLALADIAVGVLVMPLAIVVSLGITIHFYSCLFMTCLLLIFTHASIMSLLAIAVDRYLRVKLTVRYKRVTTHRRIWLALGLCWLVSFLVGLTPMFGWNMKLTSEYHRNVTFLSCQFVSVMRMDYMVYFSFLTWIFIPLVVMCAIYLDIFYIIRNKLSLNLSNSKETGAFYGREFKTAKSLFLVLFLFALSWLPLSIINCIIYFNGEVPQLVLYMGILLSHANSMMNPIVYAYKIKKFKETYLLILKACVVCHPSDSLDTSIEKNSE", "conditions": "cited from earlier work"}, "rat mesentery": {"system": "rat mesentery", "test": "Rat mesentery angiogenesis, intraperitoneal Alzet osmotic pump infusion", "type": "in vivo", "conditions": "chronic infusion by Alzet pump into the peritoneal cavity, one week, FIG. 11", "description": "Drug application into rat mesentery using infusion pumps. Alzet osmotic pumps were filled with drug or vehicle to a volume of 200 μl . The abdominal cavities of anesthetized 150 g Sprague-Dawley rats were incised and pumps implanted into the intraperitoneal cavity. The pumps delivered the drug at 1.0 μl/hr. After one week mesenteric samples were taken between vascular arcades along the length of the small bowel. Specimens were fixed and stained using a BS:lectin stain.\nThe control mesentery is shown on the left, PD 81,723—treated on the right. The chronic infusion was an advantage because the model is not an ischemic one, so steady long term administration of the PD 81,723 may help to augment the effects of lower concentrations of endogenous adenosine."}}, "data": [{"smiles": "Nc1ncnc2c1ncn2[C@@H]1O[C@H](CO)[C@@H](O)[C@H]1O", "note": "[Adenosine, adenosine]", "values": [{"measurement": "angiogenesis in the CAM model (vascular density index)", "setting": "[1]", "value": "stimulated angiogenesis"}]}, {"smiles": "CCNC(=O)[C@H]1O[C@@H](n2cnc3c(N)nc(NCCc4ccc(CCC(=O)O)cc4)nc32)[C@H](O)[C@@H]1O", "note": "[CGS21680]", "values": [{"measurement": "angiogenic response in the CAM (vessel density at edge of disk)", "setting": "[2]; 100 nM doses, FIG. 6", "value": "No angiogenic response"}]}, {"smiles": "OC[C@H]1O[C@@H](n2cnc3c(NC4CCCC4)ncnc32)[C@H](O)[C@@H]1O", "note": "[CPA, Cyclopentyladenosine]", "values": [{"measurement": "angiogenic response in the CAM (vessel density at edge of disk)", "setting": "[2]; 100 nM doses, FIG. 6", "value": "positive angiogenic response"}, {"measurement": "stimulation of angiogenesis in the CAM", "setting": "[3]", "value": "did not stimulate angiogenesis"}]}, {"smiles": "CCOC(=O)C1=C(C)NC(c2ccccc2)=C(C(=O)OCc2ccccc2)C1C#Cc1ccccc1", "note": "(centres unmarked) [MRS 1191]", "values": [{"measurement": "selectivity for the human A3 over the A1 receptor", "setting": "[4]", "value": "> 1300", "unit": "fold"}]}, {"smiles": "CCNC(=O)[C@H]1O[C@@H](n2cnc3c(N)ncnc32)[C@H](O)[C@@H]1O", "note": "[NECA]", "values": [{"measurement": "angiogenic response in the CAM (vessel density at edge of disk)", "setting": "[2]; 100 nM doses, FIG. 6", "value": "positive angiogenic response"}]}, {"smiles": "Cc1sc(N)c(C(=O)c2cccc(C(F)(F)F)c2)c1C", "note": "[PD 81,723]", "values": [{"measurement": "stimulation of angiogenesis in the CAM", "setting": "[2]; 100 μM on filter paper disc versus vehicle, FIG. 8", "value": 10, "unit": "%"}, {"measurement": "stimulation of angiogenesis in rat mesentery", "setting": "rat mesentery", "value": "Stimulation of angiogenesis"}]}, {"smiles": "CC(C)N(C)c1nc2c(N[C@@H]3CC4CC3CC4O)ncnc2n1C", "note": "(some centres unmarked) [WRC-0571]", "values": [{"measurement": "block of the angiogenic effect of CPA in the CAM", "setting": "[2]; 1 μM WRC-0571 with 100 nM CPA, FIG. 7", "value": "completely blocked"}, {"measurement": "block of the effects of endogenous adenosine on angiogenesis in the CAM", "setting": "[2]; FIG. 8", "value": "blocked the effects of endogenous adenosine"}, {"measurement": "block of C17-stimulated angiogenesis in the CAM", "setting": "[2]; FIG. 9", "value": "blocked"}, {"measurement": "block of the effects of PD 81,723 in the CAM", "setting": "[2]; with PD at 100 μM, FIG. 8", "value": "completely blocked"}]}, {"smiles": "CCCn1c(=O)c2[nH]c(-c3ccc(OCC(=O)NCCN)cc3)nc2n(CCC)c1=O", "note": "[XAC, xanthine amine congener]", "values": [{"measurement": "inhibition of baseline angiogenesis in the CAM", "setting": "[2]; 100 nM doses, daily for 7 days on filter paper disk, four eggs, FIG. 6", "value": "did not inhibit baseline angiogenesis"}]}, {"smiles": "CNC(=O)[C@H]1O[C@@H](n2cnc3c(NCc4cccc(I)c4)ncnc32)[C@H](O)[C@@H]1O", "note": "[m-MECA, N^6-iodobenzyl-5′-N-methyl-carboxamidoadenosine]", "values": [{"measurement": "angiogenic response in the CAM (vessel density at edge of disk)", "setting": "[2]; 100 nM doses, FIG. 6", "value": "positive angiogenic response"}]}]}
